{"source": "ChEMBL document CHEMBL6109090", "about": "“Design, synthesis, and biological evaluation of novel and highly potent peptides targeting syntenin” (Eur J Med Chem, 2025)", "key": {"[1]": {"assay": "Binding affinity to Syntenin PDZ1 domain (unknown origin) assessed as dissociation constant by MST analysis", "design": "species or system Homo sapiens"}, "[2]": {"assay": "Stability in mouse serum at 5 uM measured after 4 hrs by HPLC analysis", "type": "ADME, cell-free", "conditions": "for Stability: serum, 4 h, 5 µM"}, "[3]": {"assay": "Antiproliferative activity against human SK-RC-20 cells assessed as inhibition of cell growth measured at 24 hrs by MTT assay", "type": "functional, cell-based", "conditions": "SK-RC-20, 24 h"}, "[4]": {"assay": "Antiproliferative activity against human SK-RC-20 cells assessed as inhibition of cell growth measured at 48 hrs by MTT assay", "type": "functional, cell-based", "conditions": "SK-RC-20, 48 h"}, "[5]": {"assay": "Antiproliferative activity against human SK-RC-20 cells assessed as inhibition of cell growth measured at 72 hrs by MTT assay", "type": "functional, cell-based", "conditions": "SK-RC-20, 72 h"}, "SK-RC-20 [6]": {"tested_on": "SK-RC-20", "assay": "Binding affinity to immobilized Syntenin in human SK-RC-20 cells at 5 uM incubated for 2 hrs by pull down assay", "type": "cell-based"}, "A498": {"tested_on": "A498", "assay": "Antiproliferative activity against human A498 cells assessed as inhibition of cell growth measured after 24 to 72 hrs by MTT assay", "type": "functional, cell-based", "conditions": "time 24-72 hrs"}, "UO-31": {"tested_on": "UO-31", "assay": "Antiproliferative activity against human UO-31 cells assessed as inhibition of cell growth measured after 24 to 72 hrs by MTT assay", "type": "functional, cell-based", "conditions": "time 24-72 hrs"}, "KMRC-1": {"tested_on": "KMRC-1", "assay": "Antiproliferative activity against human KMRC-1 cells assessed as inhibition of cell growth measured after 24 to 72 hrs by MTT assay", "type": "functional, cell-based", "conditions": "time 24-72 hrs"}, "CAKI-1": {"tested_on": "CAKI-1", "assay": "Antiproliferative activity against human CAKI-1 cells assessed as inhibition of cell growth measured after 24 to 72 hrs by MTT assay", "type": "functional, cell-based", "conditions": "time 24-72 hrs"}, "SK-RC-20 [7]": {"tested_on": "SK-RC-20", "assay": "Downregulation of MT1-MMP mRNA expression in human SK-RC-20 cells at 50 to 100 nM by RT-PCR analysis", "type": "functional, cell-based", "conditions": "dose 50-100 nM"}, "SK-RC-20 [8]": {"tested_on": "SK-RC-20", "assay": "Downregulation of MMP2 mRNA expression in human SK-RC-20 cells at 50 to 100 nM by RT-PCR analysis", "type": "functional, cell-based", "conditions": "dose 50-100 nM"}, "SK-RC-20 [9]": {"tested_on": "SK-RC-20", "assay": "Antitumor activity in human SK-RC-20 cells xenografted in male BALB/c nude mouse model assessed as reduction in tumor volume at 5 to 15 mg/kg measured every three days for 15 days", "type": "functional, organism-based", "conditions": "dose 5-15 mg/kg, time 15.0 day"}, "[10]": {"assay": "Toxicity in male BALB/c nude mouse assessed as change in body weight at 5 to 15 mg/kg measured every three days for 15 days", "type": "organism-based", "conditions": "in vivo, 360 h, dose 5-15 mg/kg, time 15 day"}, "SK-RC-20 [11]": {"tested_on": "SK-RC-20", "assay": "Antitumor activity in human SK-RC-20 cells xenografted in male BALB/c nude mouse model assessed as inhibition of tumor growth at 15 mg/kg measured every three days for 15 days", "type": "functional, organism-based", "conditions": "time 15.0 day"}}, "note": "The source made the active and inactive calls. The rule behind the calls is not given here. Non-standard residues stand in square brackets, D forms with d. Residues, ends and D or L forms follow the SMILES beside them. Phg = N[C@H](C(=O)O)c1ccccc1", "data": [{"smiles": "CC[C@H](C)[C@H](NC(=O)[C@H](CC(=O)O)NC(=O)[C@@H](NC(=O)[C@@H](NC(=O)[C@H](Cc1c[nH]c2ccccc12)NC(=O)[C@H](Cc1cnc[nH]1)NC(=O)[C@H](CO)NC(=O)[C@@H](CCCNC(=N)N)NC(=O)[C@H](CCCNC(=N)N)NC(=O)[C@@H](CCCNC(=N)N)NC(=O)[C@H](CCCNC(=N)N)NC(=O)[C@@H](CCCNC(=N)N)NC(=O)CNC(=O)[C@@H](CCCNC(=N)N)NC(=O)[C@H](CCCNC(=N)N)NC(=O)[C@@H](CCCNC(=N)N)NC(C)=O)C(C)(C)C)C1CCCCC1)C(=O)O", "values": [{"measurement": "Kd", "setting": "[1]", "value": 0.0003, "unit": "µM"}, {"measurement": "Stability", "setting": "[2]", "value": "Unstable"}, {"measurement": "IC50", "setting": "[3]", "value": 22.1, "unit": "µM"}, {"measurement": "IC50", "setting": "[4]", "value": 14.4, "unit": "µM"}, {"measurement": "IC50", "setting": "[5]", "value": 9.71, "unit": "µM"}]}, {"smiles": "CC[C@H](C)[C@H](NC(=O)[C@H](CC(=O)O)NC(=O)[C@@H](NC(=O)[C@@H](NC(=O)[C@H](Cc1c[nH]c2ccccc12)NC(=O)[C@H](NC(=O)[C@@H](NC(C)=O)[C@@H](C)O)C(C)C)C(C)C)c1ccccc1)C(N)=O", "values": [{"measurement": "Kd", "setting": "[1]", "value": 0.0152, "unit": "µM"}]}, {"smiles": "CC[C@H](C)[C@H](NC(=O)[C@H](CC(=O)O)NC(=O)[C@@H](NC(=O)[C@@H](NC(=O)[C@H](Cc1c[nH]c2ccccc12)NC(=O)[C@@H](CCCCN)NC(=O)[C@H](C)NC(C)=O)C(C)C)c1ccccc1)C(N)=O", "values": [{"measurement": "Kd", "setting": "[1]", "value": 0.00907, "unit": "µM"}]}, {"smiles": "CC[C@H](C)[C@H](NC(=O)[C@@H](NC(=O)[C@@H](NC(=O)[C@@H](NC(=O)[C@H](Cc1c[nH]c2ccccc12)NC(=O)[C@@H](CCCCN)NC(=O)[C@@H](NC(C)=O)[C@@H](C)O)C(C)C)c1ccccc1)C(C)C)C(N)=O", "values": [{"measurement": "Kd", "setting": "[1]", "value": 0.0283, "unit": "µM"}]}, {"smiles": "CC[C@H](C)[C@H](NC(=O)[C@H](CC(=O)O)NC(=O)[C@H](NC(=O)[C@@H](NC(=O)[C@H](Cc1c[nH]c2ccccc12)NC(=O)[C@@H](CCCCN)NC(=O)[C@@H](NC(C)=O)[C@@H](C)O)C(C)C)C(C)C)C(N)=O", "values": [{"measurement": "Kd", "setting": "[1]", "value": 0.0197, "unit": "µM"}]}, {"smiles": "CC[C@H](C)[C@H](NC(=O)[C@H](CC(=O)O)NC(=O)[C@@H](NC(=O)[C@@H](NC(=O)[C@H](Cc1cnc[nH]1)NC(=O)[C@@H](CCCCN)NC(=O)[C@@H](NC(C)=O)[C@@H](C)O)C(C)C)c1ccccc1)C(N)=O", "values": [{"measurement": "Kd", "setting": "[1]", "value": 0.0341, "unit": "µM"}]}, {"smiles": "CC[C@H](C)[C@H](NC(=O)[C@H](CC(=O)O)NC(=O)[C@@H](NC(=O)[C@@H](NC(=O)[C@H](Cc1c[nH]c2ccccc12)NC(=O)[C@H](CCCCN)NC(=O)[C@@H](NC(C)=O)[C@@H](C)O)C(C)C)c1ccccc1)C(N)=O", "note": "(Ac-TKWV[Phg]DI-NH2)", "values": [{"measurement": "Kd", "setting": "[1]", "value": 0.00615, "unit": "µM"}, {"measurement": "Activity", "setting": "SK-RC-20 [6]", "value": "Active"}, {"measurement": "remaining at 4 h, 5 µM", "setting": "[2]; mouse serum, read-out: Stability", "value": "~80", "unit": "%"}, {"measurement": "IC50", "setting": "[3]", "value": 1.24, "unit": "µM"}, {"measurement": "IC50", "setting": "[4]", "value": 0.91, "unit": "µM"}, {"measurement": "IC50", "setting": "[5]", "value": 0.56, "unit": "µM"}, {"measurement": "Activity", "setting": "A498", "value": "Active"}, {"measurement": "Activity", "setting": "UO-31", "value": "Active"}, {"measurement": "Activity", "setting": "KMRC-1", "value": "Active"}, {"measurement": "Activity", "setting": "CAKI-1", "value": "Active"}, {"measurement": "Activity", "setting": "SK-RC-20 [7]", "value": "Active"}, {"measurement": "Activity", "setting": "SK-RC-20 [8]", "value": "Active"}, {"measurement": "Activity", "setting": "SK-RC-20 [9]", "value": "Active"}, {"measurement": "Activity", "setting": "[10]", "value": "Toxic"}, {"measurement": "Activity", "setting": "SK-RC-20 [11]", "value": "Active"}]}, {"smiles": "CC[C@H](C)[C@H](NC(=O)[C@H](CC(=O)O)NC(=O)[C@@H](NC(=O)[C@@H](NC(=O)[C@H](Cc1c[nH]c2ccccc12)NC(=O)[C@H](Cc1cnc[nH]1)NC(=O)[C@@H](N)CO)[C@@H](C)O)[C@@H](C)CC)C(=O)O", "note": "(H-SHWTIDI-OH)", "values": [{"measurement": "Stability", "setting": "[2]", "value": "Unstable"}]}]}
